Among the data in patent US10221161B2, “Inhibitors of plasma kallikrein” (Kalvista Pharmaceuticals Limited, priority 2013, dated 2019) are IC50 values, retold here.

A word on the IC50: it is the concentration needed to halve the response being measured.

Experiment [1] deals with Human plasma kallikrein (Homo sapiens (Human), UniProt P03952). Nature of the experiment: Determination of the IC50 for plasma kallikrein (fluorogenic substrate H-DPro-Phe-Arg-AFC). It counts as biochemical. Conditions: 37° C., read-out: IC50 (human PKal). On the procedure:
Determination of the IC50 Plasma Kallikrein Plasma kallikrein inhibitory activity in vitro was determined using standard published methods (see e.g. Johansen et al., Int. J. Tiss. […] Shori et al., Biochem. Pharmacol., 1992, 43, 1209; Stürzebecher et al., Biol. Chem. Hoppe-Seyler, 1992, 373, 1025). Human plasma kallikrein (Protogen) was incubated at 37° C. with the fluorogenic substrate […] and various concentrations of the test compound.

The target of experiment [2] is Human KLK1 (Homo sapiens (Human), UniProt P06870). Kind of experiment: Determination of the IC50 for KLK1 (fluorogenic substrate H-DVal-Leu-Arg-AFC). The format is biochemical. To be noted: human KLK1, 37° C. Here is the method: Selected compounds were further screened for inhibitory activity against the related enzyme KLK1. The ability of the compounds of formula (I) to inhibit KLK1 may be determined using the following biological assay:
Determination of the IC50 for KLK1
KLK1 inhibitory activity in vitro was determined using standard published methods (see e.g. Johansen et al., Int. J. Tiss. Reac. 1986, 8, 185; Shori et al., Biochem. Pharmacol., 1992, 43, 1209; Stürzebecher et al., Biol. Chem. Hoppe-Seyler, 1992, 373, 1025). Human KLK1 (Callbiochem) was incubated at 37° C. with the fluorogenic substrate H-DVal-Leu-Arg-AFC and various concentrations of the test compound. Residual enzyme activity (initial rate of reaction) was determined by measuring the change in optical absorbance at 410 nm and the IC50 value for the test compound was determined.

Human KLK1, sequence (P06870 25-262): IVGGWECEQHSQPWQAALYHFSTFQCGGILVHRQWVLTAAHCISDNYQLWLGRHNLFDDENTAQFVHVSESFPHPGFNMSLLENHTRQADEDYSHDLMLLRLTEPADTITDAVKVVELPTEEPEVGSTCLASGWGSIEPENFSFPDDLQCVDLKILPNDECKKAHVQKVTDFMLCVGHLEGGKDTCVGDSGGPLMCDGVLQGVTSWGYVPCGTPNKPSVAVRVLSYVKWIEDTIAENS
Human plasma kallikrein, sequence (P03952 391-638 limits assumed): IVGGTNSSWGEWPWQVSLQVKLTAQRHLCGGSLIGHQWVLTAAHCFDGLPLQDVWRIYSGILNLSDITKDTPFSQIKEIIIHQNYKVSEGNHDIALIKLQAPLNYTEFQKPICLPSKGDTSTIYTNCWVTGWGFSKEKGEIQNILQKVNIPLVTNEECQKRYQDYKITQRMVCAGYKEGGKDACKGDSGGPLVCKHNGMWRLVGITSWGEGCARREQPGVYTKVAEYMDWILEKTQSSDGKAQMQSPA
Human plasma kallikrein, sequence (P03952 20-390 partner limits assumed): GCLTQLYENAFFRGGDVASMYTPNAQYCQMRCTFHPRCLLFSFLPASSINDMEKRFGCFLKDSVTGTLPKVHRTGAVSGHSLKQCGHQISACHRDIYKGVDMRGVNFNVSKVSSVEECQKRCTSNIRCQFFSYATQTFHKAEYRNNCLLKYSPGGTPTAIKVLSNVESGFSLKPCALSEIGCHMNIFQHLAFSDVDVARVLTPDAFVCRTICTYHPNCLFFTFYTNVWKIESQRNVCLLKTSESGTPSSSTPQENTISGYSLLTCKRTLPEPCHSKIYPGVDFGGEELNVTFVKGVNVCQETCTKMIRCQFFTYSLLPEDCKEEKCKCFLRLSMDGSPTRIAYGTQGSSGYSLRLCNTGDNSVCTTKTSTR

In the case of `Nc1nccc2cc(CNC(=O)c3cncc(CN4CCN(S(=O)(=O)c5ccccc5)CC4)c3)ccc12` [Example 35, N-[(1-Aminoisoquinolin-6-yl)methyl]-5-{[4-(benzenesulfonyl)piperazin-1-yl]methyl}pyridine-3-carboxamide], the concentration for half-maximal inhibition (IC50) in experiment [1] was determined as 3.51 µM; in experiment [2] it was 29.8 µM.
On the same counts, the results for `Cc1cnn(Cc2ccc(C(O)c3cncc(C(=O)NCc4ccc5c(N)nccc5c4)c3)cc2)c1` (stereo not drawn) [Example 7, N-((1-Aminoisoquinolin-6-yl)methyl)-5-(hydroxy(4-((4-methyl-1H-pyrazol-1-yl)methyl)phenyl)methyl)nicotinamide] are 0.0353 µM and 8.02 µM.
On the same counts, the results for `COc1cccc(Cc2cncc(C(=O)NCc3ccc4c(N)nccc4c3)c2)c1` [Example 25, N-[(1-Aminoisoquinolin-6-yl)methyl]-5-[(3-methoxyphenyl)methyl]pyridine-3-carboxamide] are 2.64 µM and 6.17 µM.
For `Cc1ccc2cc(Cc3cncc(C(=O)NCc4c(C)nc5[nH]ccc(C)c4-5)c3)ccc2n1` [Example 13, N-({2,4-Dimethyl-7H-pyrrolo[2,3-b]pyridin-3-yl}methyl)-5-[(2-methylquinolin-6-yl)methyl]pyridine-3-carboxamide], in that order: 0.923 µM and 0.236 µM.
Consider `Cc1cnn(Cc2ccc(Cc3cncc(C(=O)NCc4c(C)cc(CN)cc4C)n3)cc2)c1` [Example 95, N-{[4-(Aminomethyl)-2,6-dimethylphenyl]methyl}-6-({4-[(4-methylpyrazol-1-yl)methyl]phenyl}methyl)pyrazine-2-carboxamide], for which the IC50 in experiment [1] was 0.0536 µM; in experiment [2] it was greater than 40 µM.
Take `Cc1ccc2cc(Cc3cncc(C(=O)NCc4ccc5c(N)nccc5c4)c3)ccc2n1` [Example 17, N-[(1-Aminoisoquinolin-6-yl)methyl]-5-[(2-methylquinolin-6-yl)methyl]pyridine-3-carboxamide]: the IC50 in experiment [1] amounted to 0.0275 µM; in experiment [2], 1.12 µM.
On the same counts, the results for `Nc1nccc2cc(CNC(=O)c3cncc(CN4CCN(Cc5ccccc5F)CC4)c3)ccc12` [Example 44, N-[(1-Aminoisoquinolin-6-yl)methyl]-5-({4-[(2-fluorophenyl)methyl]piperazin-1-yl}methyl)pyridine-3-carboxamide] are 6.79 µM and 28 µM.
For `COc1ccccc1CN1CCN(Cc2cncc(C(=O)NCc3ccc4c(N)nccc4c3)c2)CC1` [Example 42, N-[(1-Aminoisoquinolin-6-yl)methyl]-5-({4-[(2-methoxyphenyl)methyl]piperazin-1-yl}methyl)pyridine-3-carboxamide], in that order: 1.83 µM and 24.3 µM.
For `Nc1nccc2cc(CNC(=O)c3cncc(Cc4ccnc(N5CCCC5)c4)c3)ccc12` [Example 77, N-[(1-Aminoisoquinolin-6-yl)methyl]-5-{[2-(pyrrolidin-1-yl)pyridin-4-yl]methyl}pyridine-3-carboxamide], in that order: 0.0377 µM and 4.8 µM.
Turning to `Cn1cc(CN2CCN(Cc3cncc(C(=O)NCc4ccc5c(N)nccc5c4)c3)CC2)cn1` [Example 47, N-[(1-Aminoisoquinolin-6-yl)methyl]-5-({4-[(1-methylpyrazol-4-yl)methyl]piperazin-1-yl}methyl)pyridine-3-carboxamide], the IC50 is 40 µM in experiment [1] and greater than 40 µM in experiment [2].
With `Nc1nccc2cc(CNC(=O)c3cncc(Cc4csc(-c5ccccc5)n4)c3)ccc12` [Example 24, N-[(1-Aminoisoquinolin-6-yl)methyl]-5-[(2-phenyl-1,3-thiazol-4-yl)methyl]pyridine-3-carboxamide], the concentration for half-maximal inhibition (IC50) worked out at 1.71 µM in experiment [1] and 4 µM in experiment [2].
On the same counts, the results for `Nc1nccc2cc(CNC(=O)c3cncc(Cc4ccc5ncccc5c4)c3)ccc12` [Example 31, N-[(1-Aminoisoquinolin-6-yl)methyl]-5-(quinolin-6-ylmethyl)pyridine-3-carboxamide] are 0.144 µM and 4.13 µM.
In the case of `Cc1cnn(Cc2ccc(Cn3cc(C(=O)NCc4ccc5c(N)nccc5c4)ccc3=O)cc2)c1` [Example 15, N-[(1-Aminoisoquinolin-6-yl)methyl]-1-({4-[(4-methylpyrazol-1-yl)methyl]phenyl}methyl)-6-oxopyridine-3-carboxamide], the IC50 in experiment [1] worked out at 0.159 µM; in experiment [2], 17.6 µM.
On the same counts, the results for `Nc1nccc2cc(CNC(=O)c3cncc(Cc4ccccc4)c3)ccc12` [Example 23, N-[(1-Aminoisoquinolin-6-yl)methyl]-5-benzylpyridine-3-carboxamide] are 40 µM and 32.7 µM.
For `Nc1nccc2cc(CNC(=O)c3cncc(CN4CCN(Cc5ccccc5)CC4)c3)ccc12` [Example 41, N-[(1-Aminoisoquinolin-6-yl)methyl]-5-[(4-benzylpiperazin-1-yl)methyl]pyridine-3-carboxamide], in that order: 2.75 µM and 37 µM.
Take `Cc1ccc2cc(Cn3cc(C(=O)NCc4ccc5c(N)nccc5c4)ccc3=O)ccc2n1` [Example 16, N-[(1-Aminoisoquinolin-6-yl)methyl]-1-[(2-methylquinolin-6-yl)methyl]-6-oxopyridine-3-carboxamide]: the IC50 was determined as 0.179 µM in experiment [1] and 2.06 µM in experiment [2].
As for `CC1(C)CCN(c2ccc(Cc3cncc(C(=O)NCc4ccc5c(N)nccc5c4)c3)cn2)C1` [Example 74, N-[(1-Aminoisoquinolin-6-yl)methyl]-5-{[6-(3,3-dimethylpyrrolidin-1-yl)pyridin-3-yl]methyl}pyridine-3-carboxamide], the results for the IC50 in experiment [1] and in experiment [2] were 0.0831 µM and greater than 10 µM, respectively.
For `Cc1cnn(Cc2ccc(Cc3cnnc(C(=O)NCc4ccc5c(N)nccc5c4)c3)cc2)c1` [Example 11, N-[(1-Aminoisoquinolin-6-yl)methyl]-5-({4-[(4-methylpyrazol-1-yl)methyl]phenyl}methyl)pyridazine-3-carboxamide], in that order: 0.0823 µM and 37.1 µM.
With `Nc1nccc2cc(CNC(=O)c3cncc(Cc4cccc(-n5cccn5)c4)c3)ccc12` [Example 30, N-[(1-Aminoisoquinolin-6-yl)methyl]-5-{[3-(pyrazol-1-yl)phenyl]methyl}pyridine-3-carboxamide], the IC50 in experiment [1] turned out to be 0.302 µM; in experiment [2], 2.85 µM.
For `CN1CCN(c2ccc(Cc3cncc(C(=O)NCc4ccc5c(N)nccc5c4)c3)cn2)CC1` [Example 64, N-[(1-Aminoisoquinolin-6-yl)methyl]-5-{[6-(4-methylpiperazin-1-yl)pyridin-3-yl]methyl}pyridine-3-carboxamide], in that order: 0.61 µM and 5.34 µM.
On the same counts, the results for `CC1CCCN1c1ccc(Cc2cncc(C(=O)NCc3ccc4c(N)nccc4c3)c2)cn1` (stereo not drawn) [Example 58, N-[(1-Aminoisoquinolin-6-yl)methyl]-5-{[6-(2-methylpyrrolidin-1-yl)pyridin-3-yl]methyl}pyridine-3-carboxamide] are 0.153 µM and 6.52 µM.
On the same counts, the results for `COc1ncc(Cc2ccc3nc(C)ccc3c2)cc1C(=O)NCc1ccc2c(N)nccc2c1` [Example 19, N-[(1-Aminoisoquinolin-6-yl)methyl]-2-methoxy-5-[(2-methylquinolin-6-yl)methyl]pyridine-3-carboxamide] are 0.434 µM and 1.21 µM.
Take `COC1CCN(c2cc(Cc3cncc(C(=O)NCc4ccc5c(N)nccc5c4)c3)ccn2)C1` (stereo not drawn) [Example 88, N-[(1-Aminoisoquinolin-6-yl)methyl]-5-{[2-(3-methoxypyrrolidin-1-yl)pyridin-4-yl]methyl}pyridine-3-carboxamide]: the half-inhibitory concentration (IC50) in experiment [1] is 0.234 µM; in experiment [2], 9.85 µM.
For `Cc1ccc2cc(Cc3cncc(C(=O)NCc4ccc5c(N)nccc5c4)n3)ccc2n1` [Example 10, N-[(1-Aminoisoquinolin-6-yl)methyl]-6-[(2-methylquinolin-6-yl)methyl]pyrazine-2-carboxamide], in that order: 0.194 µM and 3.02 µM.
`CC1CCCN1c1cc(Cc2cncc(C(=O)NCc3ccc4c(N)nccc4c3)c2)ccn1` (stereo not drawn) [Example 79, N-[(1-Aminoisoquinolin-6-yl)methyl]-5-{[2-(2-methylpyrrolidin-1-yl)pyridin-4-yl]methyl}pyridine-3-carboxamide]: the 50% inhibitory concentration (IC50) in experiment [1] came to 0.155 µM; in experiment [2], 7.14 µM.
Take `COc1ccc(CN2CCN(Cc3cncc(C(=O)NCc4ccc5c(N)nccc5c4)c3)CC2)cc1` [Example 45, N-[(1-Aminoisoquinolin-6-yl)methyl]-5-({4-[(4-methoxyphenyl)methyl]piperazin-1-yl}methyl)pyridine-3-carboxamide]: the half-maximal inhibitory concentration (IC50) in experiment [1] turned out to be 33.6 µM; in experiment [2] it was 26.9 µM.
For the compound `Nc1nccc2cc(CNC(=O)c3cncc(Cc4ccnc(N5CCC(F)C5)c4)c3)ccc12` (stereo not drawn) [Example 82, N-[(1-Aminoisoquinolin-6-yl)methyl]-5-{[2-(3-fluoropyrrolidin-1-yl)pyridin-4-yl]methyl}pyridine-3-carboxamide], the IC50 in experiment [1] is 0.0678 µM; in experiment [2] it was 4 µM.
